Experimental data as given in ChEMBL document CHEMBL1201862, “PubChem BioAssay data set” (2004).
Calls of active or inactive are those of the source.

Key:
Beta-galactosidase = Beta-galactosidase (Escherichia coli, UniProt Q8VNN2); experiment: PubChem AID 485352; format: functional
[1] = biological target: Type-1 angiotensin II receptor (Homo sapiens, UniProt P30556); experiment: antagonism of angiotensin II type 1 receptor – cell-based, uHTS hits, selectivity assay for APJ receptor antagonist project, dose response (AID 463214); format: functional;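 also: antagonist potency against angiotensin II stimulated AT1 response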
Sequence of Type-1 angiotensin II receptor (P30556 whole entry): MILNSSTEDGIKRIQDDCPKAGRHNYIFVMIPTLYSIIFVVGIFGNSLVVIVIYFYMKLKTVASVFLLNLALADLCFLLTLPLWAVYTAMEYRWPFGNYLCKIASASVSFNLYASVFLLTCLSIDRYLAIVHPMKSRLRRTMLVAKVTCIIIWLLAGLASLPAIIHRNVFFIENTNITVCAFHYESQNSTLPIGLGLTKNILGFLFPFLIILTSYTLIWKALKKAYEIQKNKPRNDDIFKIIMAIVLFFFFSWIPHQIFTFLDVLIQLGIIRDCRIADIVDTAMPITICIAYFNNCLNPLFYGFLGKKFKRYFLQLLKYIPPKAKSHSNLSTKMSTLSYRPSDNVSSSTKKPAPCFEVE

[2] = biological target: T1, Sentrin-specific protease 8 (Homo sapiens, UniProt Q96LD8); format: functional;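 also: luminescence read-out of SENP8 inhibition, dose-response confirmation following an ultra-high-throughput screen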
T1 sequence (Q96LD8 whole entry): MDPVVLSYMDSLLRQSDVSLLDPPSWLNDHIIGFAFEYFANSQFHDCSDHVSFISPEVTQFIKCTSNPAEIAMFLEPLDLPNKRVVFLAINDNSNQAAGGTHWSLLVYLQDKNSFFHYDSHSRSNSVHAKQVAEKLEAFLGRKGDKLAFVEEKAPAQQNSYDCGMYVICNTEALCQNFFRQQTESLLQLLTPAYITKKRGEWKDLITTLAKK

Caspase-3 [3] = biological target: T2, Caspase-3 (Homo sapiens, UniProt P42574); experiment: SAR Analysis of small molecule inhibitors of Sentrin-specific proteases (SENPs) using a Caspase-3 Selectivity assay. [Related pubchem assays (depositor defined):AID2540, AID2599, AID434973, AID489001]; format: functional
T2 sequence (P42574 whole entry): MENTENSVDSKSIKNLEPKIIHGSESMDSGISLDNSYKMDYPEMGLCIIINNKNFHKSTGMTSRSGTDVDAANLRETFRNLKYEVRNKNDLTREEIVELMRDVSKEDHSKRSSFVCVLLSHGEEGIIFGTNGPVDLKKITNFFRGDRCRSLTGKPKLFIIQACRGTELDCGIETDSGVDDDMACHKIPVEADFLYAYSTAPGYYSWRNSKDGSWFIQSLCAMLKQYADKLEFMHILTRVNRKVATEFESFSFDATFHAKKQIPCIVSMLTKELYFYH

[4] = biological target: T3, Sentrin-specific protease 6 (Homo sapiens, UniProt Q9GZR1); format: functional
T3 sequence (Q9GZR1 whole entry): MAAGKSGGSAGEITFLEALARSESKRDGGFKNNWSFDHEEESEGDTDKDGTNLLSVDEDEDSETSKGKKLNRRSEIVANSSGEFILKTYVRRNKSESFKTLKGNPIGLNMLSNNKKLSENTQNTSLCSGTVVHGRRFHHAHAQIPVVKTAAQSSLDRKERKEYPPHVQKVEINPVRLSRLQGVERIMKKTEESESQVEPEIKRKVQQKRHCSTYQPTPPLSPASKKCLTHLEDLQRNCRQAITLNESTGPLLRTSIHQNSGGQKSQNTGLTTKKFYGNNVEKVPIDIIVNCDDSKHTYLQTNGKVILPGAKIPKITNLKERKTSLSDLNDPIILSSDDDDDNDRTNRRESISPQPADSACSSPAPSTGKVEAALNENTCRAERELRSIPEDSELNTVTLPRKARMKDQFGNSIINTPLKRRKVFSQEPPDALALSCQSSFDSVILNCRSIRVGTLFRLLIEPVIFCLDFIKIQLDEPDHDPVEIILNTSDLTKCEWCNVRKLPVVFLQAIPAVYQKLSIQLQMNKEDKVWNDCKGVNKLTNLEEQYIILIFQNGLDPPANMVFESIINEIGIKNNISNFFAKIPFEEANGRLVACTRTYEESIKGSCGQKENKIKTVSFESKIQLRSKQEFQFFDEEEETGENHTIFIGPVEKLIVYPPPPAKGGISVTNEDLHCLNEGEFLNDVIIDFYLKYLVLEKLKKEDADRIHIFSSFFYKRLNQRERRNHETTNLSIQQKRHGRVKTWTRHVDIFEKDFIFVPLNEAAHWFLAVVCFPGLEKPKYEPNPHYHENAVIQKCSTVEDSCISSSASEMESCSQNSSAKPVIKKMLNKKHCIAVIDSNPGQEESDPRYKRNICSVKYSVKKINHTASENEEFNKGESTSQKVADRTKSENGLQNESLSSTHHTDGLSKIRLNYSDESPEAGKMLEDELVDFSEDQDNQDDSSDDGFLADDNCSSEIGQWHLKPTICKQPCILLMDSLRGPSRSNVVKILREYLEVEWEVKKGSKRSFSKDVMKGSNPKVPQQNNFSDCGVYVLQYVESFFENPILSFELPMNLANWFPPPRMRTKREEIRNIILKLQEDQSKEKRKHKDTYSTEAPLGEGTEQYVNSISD

HeLa = experiment: ATP-based viability loss in HeLa cells – cell-based, CellTiter-Glo luminescence, cherry-pick samples, cytotoxicity control for MITF activator project, dose response (AID 540259); format: functional; conditions: Homo sapiens
[5] = biological target: T1, Sentrin-specific protease 8; experiment: inhibition of human SENP8 cleavage activity – biochemical, luminescence, SAR follow-up (AID 504501); format: functional
[6] = biological target: T4, Sentrin-specific protease 7 (Homo sapiens, UniProt Q9BQF6); format: functional;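 also: Luminescence-based dose-response confirmation of ultra-high-throughput screening hits, measuring inhibition of SENP7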
T4 sequence (Q9BQF6 whole entry): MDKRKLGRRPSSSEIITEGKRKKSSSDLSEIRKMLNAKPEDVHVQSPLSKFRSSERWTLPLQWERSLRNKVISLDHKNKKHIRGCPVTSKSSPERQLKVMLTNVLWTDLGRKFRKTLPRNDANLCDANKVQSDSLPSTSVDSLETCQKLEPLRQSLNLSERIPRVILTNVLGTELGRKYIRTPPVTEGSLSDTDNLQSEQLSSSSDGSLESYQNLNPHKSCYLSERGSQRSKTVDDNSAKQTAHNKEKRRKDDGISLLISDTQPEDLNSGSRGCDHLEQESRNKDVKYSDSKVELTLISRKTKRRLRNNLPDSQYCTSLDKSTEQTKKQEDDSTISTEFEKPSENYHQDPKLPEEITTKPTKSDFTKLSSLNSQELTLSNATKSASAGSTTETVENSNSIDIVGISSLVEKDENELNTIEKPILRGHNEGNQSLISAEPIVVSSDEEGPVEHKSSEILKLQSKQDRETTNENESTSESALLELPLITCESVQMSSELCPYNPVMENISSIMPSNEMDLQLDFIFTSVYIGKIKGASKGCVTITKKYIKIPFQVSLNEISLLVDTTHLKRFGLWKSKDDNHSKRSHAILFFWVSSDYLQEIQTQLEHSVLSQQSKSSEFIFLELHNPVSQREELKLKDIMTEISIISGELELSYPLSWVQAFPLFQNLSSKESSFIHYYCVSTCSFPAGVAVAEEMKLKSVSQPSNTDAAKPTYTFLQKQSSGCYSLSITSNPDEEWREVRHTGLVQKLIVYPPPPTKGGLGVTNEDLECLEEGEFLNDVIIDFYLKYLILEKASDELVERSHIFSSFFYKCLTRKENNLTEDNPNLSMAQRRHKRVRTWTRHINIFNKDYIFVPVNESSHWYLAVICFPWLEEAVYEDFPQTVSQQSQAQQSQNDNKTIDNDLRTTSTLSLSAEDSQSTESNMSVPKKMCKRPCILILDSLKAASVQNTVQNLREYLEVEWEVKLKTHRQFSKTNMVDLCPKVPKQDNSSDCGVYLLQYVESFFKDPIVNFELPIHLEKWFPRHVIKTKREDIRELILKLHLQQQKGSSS

[7] = biological target: T4, Sentrin-specific protease 7; experiment: inhibition of human SENP7 cleavage activity – biochemical, luminescence, SAR follow-up (AID 504497); format: functional
[8] = biological target: T3, Sentrin-specific protease 6; experiment: SAR Analysis of small molecule inhibitors of Sentrin-specific protease 6 (SENP6) using a Luminescent assay. [Related pubchem assays (depositor defined):AID2582, AID2599]; format: functional
Caspase-3 [9] = biological target: T2, Caspase-3; format: functional
[10] = biological target: Voltage-dependent T-type calcium channel subunit alpha-1H (Homo sapiens, UniProt O95180); format: functional;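 also: channel activity triggered by adding a high calcium stimulation buffer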
Sequence of Voltage-dependent T-type calcium channel subunit alpha-1H (O95180 whole entry): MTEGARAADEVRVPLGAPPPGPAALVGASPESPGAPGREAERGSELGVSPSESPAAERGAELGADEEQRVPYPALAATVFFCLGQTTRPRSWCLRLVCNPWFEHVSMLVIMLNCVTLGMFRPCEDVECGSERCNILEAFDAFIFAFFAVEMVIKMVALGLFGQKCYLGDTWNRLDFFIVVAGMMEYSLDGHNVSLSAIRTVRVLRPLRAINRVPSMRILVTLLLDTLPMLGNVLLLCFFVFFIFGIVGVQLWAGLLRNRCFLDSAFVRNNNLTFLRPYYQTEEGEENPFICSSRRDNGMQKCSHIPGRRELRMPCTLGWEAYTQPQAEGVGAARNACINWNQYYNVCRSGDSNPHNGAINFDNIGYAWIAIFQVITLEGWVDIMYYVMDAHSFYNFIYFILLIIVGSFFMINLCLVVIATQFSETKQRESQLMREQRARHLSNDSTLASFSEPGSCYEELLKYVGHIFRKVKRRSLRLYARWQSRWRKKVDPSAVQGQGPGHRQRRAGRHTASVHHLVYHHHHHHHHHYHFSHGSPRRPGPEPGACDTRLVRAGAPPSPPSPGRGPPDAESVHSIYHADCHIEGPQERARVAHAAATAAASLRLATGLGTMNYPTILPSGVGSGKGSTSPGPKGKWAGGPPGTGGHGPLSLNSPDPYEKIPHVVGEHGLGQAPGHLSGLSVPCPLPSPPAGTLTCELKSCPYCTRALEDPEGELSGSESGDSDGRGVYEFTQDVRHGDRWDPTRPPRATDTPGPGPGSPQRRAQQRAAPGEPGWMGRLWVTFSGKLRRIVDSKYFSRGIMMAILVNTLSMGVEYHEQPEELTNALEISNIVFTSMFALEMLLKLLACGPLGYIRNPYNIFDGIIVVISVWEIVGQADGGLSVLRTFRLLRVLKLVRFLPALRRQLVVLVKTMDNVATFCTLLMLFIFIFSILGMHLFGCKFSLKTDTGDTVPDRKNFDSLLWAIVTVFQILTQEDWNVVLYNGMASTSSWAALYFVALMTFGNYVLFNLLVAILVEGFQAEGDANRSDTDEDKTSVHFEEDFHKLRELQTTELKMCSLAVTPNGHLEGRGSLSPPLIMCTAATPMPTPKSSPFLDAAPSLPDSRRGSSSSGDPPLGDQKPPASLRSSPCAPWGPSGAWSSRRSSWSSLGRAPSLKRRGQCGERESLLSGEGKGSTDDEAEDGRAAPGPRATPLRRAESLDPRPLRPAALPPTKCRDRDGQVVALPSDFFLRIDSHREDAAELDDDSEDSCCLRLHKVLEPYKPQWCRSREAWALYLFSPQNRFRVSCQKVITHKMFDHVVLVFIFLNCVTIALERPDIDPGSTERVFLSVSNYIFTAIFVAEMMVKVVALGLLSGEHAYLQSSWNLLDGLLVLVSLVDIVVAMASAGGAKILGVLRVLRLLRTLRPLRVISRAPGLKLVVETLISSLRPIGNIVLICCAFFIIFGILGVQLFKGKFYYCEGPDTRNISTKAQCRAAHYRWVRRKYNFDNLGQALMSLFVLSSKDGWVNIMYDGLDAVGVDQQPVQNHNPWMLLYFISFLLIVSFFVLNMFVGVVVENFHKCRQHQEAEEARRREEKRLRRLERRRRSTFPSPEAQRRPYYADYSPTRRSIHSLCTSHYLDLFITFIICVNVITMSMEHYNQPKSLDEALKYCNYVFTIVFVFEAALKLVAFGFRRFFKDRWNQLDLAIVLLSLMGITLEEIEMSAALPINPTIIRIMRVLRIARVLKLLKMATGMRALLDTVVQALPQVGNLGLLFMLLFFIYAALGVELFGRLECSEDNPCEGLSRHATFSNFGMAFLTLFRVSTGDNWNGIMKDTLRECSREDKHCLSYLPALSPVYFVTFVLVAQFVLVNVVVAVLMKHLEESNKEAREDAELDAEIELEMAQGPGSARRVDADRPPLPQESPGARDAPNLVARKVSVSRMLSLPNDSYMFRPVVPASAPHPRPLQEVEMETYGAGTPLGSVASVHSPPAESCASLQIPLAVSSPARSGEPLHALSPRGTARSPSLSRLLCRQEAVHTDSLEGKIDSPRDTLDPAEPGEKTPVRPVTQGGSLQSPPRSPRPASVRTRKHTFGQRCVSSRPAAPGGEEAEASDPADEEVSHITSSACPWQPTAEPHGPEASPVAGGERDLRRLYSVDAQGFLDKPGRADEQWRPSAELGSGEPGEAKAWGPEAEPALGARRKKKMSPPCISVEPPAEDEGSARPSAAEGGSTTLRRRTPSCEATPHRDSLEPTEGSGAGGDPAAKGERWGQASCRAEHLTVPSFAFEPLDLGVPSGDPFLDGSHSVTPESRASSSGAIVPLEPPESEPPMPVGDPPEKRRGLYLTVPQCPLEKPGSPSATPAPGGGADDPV

Streptococcus = experiment: GAS UMAA2166 growth inhibition – luminescence, BacTiterGlo, counter-screen for streptokinase expression inhibitor project, dose response (AID 1915); format: functional, organism-based;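 also: potency for reduction of bacterial viability or growth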
[11] = Vero E6 cell cytotoxicity, dose response, cytotoxicity control for non-replicating M. tuberculosis project, secondary assay (AID 492998); format: functional, VeroE6; conditions: Vero C1008
[12] = fluconazole-exposed Candida albicans growth modulators – fluorescence, retest, confirmation (AID 2467); format: functional, cell-based
[13] = HepG2 cell cytotoxicity, dose response, cytotoxicity control for non-replicating M. tuberculosis project (AID 489018); format: functional; conditions: Mycobacterium tuberculosis
[14] = biological target: ATP-dependent molecular chaperone HSP82 (Candida albicans (strain WO-1) (Yeast), UniProt C4YTQ8); experiment: steroid-induced GRE reporter decrease in yeast – S. cerevisiae, luminescence, Hsp90 inhibitor project, dose response (AID 2400); format: functional, cell-based;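 also: beta-galactosidase luminescence from glucocorticoid response element reporter as proxy for Hsp90 function; inhibitor potency where signal loss means Hsp90 inhibition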
Sequence of ATP-dependent molecular chaperone HSP82 (C4YTQ8 whole entry): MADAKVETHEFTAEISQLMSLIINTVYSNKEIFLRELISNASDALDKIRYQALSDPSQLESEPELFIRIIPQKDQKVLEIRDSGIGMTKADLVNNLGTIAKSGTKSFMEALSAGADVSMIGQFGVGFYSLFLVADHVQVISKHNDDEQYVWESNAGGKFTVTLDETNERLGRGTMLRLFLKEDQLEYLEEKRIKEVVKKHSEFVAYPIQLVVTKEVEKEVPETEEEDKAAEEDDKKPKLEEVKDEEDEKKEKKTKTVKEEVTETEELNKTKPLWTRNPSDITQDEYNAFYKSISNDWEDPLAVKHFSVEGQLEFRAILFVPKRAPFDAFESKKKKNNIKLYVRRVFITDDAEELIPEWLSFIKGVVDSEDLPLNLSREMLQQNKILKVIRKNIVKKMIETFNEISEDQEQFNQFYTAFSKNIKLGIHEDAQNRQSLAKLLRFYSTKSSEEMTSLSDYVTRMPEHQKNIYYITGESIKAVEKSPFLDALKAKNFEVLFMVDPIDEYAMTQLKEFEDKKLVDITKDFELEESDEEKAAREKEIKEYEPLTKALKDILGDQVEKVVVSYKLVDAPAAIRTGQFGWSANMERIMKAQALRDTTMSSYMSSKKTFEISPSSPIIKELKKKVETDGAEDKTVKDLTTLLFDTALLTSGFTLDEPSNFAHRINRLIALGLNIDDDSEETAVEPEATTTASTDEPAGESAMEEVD

[15] = biological target: T5, Serine/threonine-protein phosphatase (Candida dubliniensis (strain CD36 / CBS 7987 / NCPF 3949 / NRRLY-17841) (Yeast), UniProt B9W6M3); experiment: blockers of CaCl2-induced CDRE-lacZ signaling – S. cerevisiae, luminescence, secondary, dose response (AID 2388); format: functional, cell-based;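 also: yeast reporter cells carrying a calcineurin-responsive lacZ construct stimulated with calcium chloride; luminescent beta-galactosidase reporter signal in whole cells rather than isolated phosphatase activity; potency for inhibition where a drop in reporter signal means calcineurin blockade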
T5 sequence (B9W6M3 whole entry): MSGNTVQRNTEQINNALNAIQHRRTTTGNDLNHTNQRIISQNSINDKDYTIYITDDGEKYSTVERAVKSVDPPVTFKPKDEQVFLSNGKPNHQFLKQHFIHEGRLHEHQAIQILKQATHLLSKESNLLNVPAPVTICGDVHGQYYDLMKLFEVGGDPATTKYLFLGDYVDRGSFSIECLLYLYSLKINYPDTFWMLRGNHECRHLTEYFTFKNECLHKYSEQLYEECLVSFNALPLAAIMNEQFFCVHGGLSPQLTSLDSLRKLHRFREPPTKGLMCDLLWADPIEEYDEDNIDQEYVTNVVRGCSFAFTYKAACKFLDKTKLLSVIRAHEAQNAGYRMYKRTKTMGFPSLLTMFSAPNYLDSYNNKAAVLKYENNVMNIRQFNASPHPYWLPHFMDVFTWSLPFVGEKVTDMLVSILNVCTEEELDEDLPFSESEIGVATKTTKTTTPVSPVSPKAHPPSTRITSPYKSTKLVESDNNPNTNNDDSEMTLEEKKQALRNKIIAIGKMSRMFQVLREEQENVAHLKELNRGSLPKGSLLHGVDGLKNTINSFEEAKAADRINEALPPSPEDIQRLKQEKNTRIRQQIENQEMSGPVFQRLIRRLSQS

cells = format: functional
[16] = NIH-3T3 fibroblast cytotoxicity, dose response, cytotoxicity control, cell-based, fluorescence, Alamar Blue, secondary assay (AID 2327); format: functional;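 also: NIH-3T3 mouse fibroblasts cultured with fluconazole at 8 µg/mL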
[17] = THP-1 cell cytotoxicity, dose response, cytotoxicity control for non-replicating M. tuberculosis project (AID 489025); format: functional
[18] = tested on: Streptococcus sp. 'group A'; experiment: Streptococcus pyogenes SK(-)GAS viability under kanamycin – luminescence, BacTiterGlo, confirmation, counter-screen for streptokinase expression inhibitor project, dose response (AID 1900); format: functional, organism-based
[19] = Luminescence Cell-Based Dose Response HTS to Identify Inhibitors of 5'UTR Stem-Loop Driven Prion Protein mRNA Translation in H4 Neuroglioblastoma Cells. [Related pubchem assays: 1827 (Project Summary), 1813 (Primary HTS)]; format: functional
[20] = alpha-synuclein stem-loop luciferase translation blockers – H4 neuroglioma cells, luminescence, confirmation (AID 1988); format: functional, cell-based
[21] = biological target: T6, High affinity choline transporter 1 (Homo sapiens, UniProt Q9GZV3); experiment: human choline transporter blockers, potency – cell-based, 5-point CRC, membrane potential dye, dose response (AID 504840); format: functional
T6 sequence (Q9GZV3 whole entry): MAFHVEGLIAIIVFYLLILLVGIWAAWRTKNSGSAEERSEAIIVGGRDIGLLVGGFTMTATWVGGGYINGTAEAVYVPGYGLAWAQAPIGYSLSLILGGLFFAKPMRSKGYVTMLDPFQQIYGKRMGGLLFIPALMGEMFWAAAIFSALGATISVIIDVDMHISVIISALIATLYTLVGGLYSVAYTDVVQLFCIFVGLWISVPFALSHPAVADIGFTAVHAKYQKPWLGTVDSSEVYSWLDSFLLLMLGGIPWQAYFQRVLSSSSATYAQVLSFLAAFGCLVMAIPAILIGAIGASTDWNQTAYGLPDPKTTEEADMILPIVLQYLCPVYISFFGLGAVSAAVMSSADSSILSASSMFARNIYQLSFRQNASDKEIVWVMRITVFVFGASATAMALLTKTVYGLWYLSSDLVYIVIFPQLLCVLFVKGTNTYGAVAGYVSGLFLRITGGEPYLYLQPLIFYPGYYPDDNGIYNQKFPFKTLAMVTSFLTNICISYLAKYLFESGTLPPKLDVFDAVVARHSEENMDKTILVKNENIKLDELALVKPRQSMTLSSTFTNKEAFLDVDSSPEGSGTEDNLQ

[22] = luciferase reporter signal suppression in cells – H4 neuroglioma cells, luminescence, dose response (AID 1990); format: functional, cell-based

Sequence of Beta-galactosidase (Q8VNN2 whole entry): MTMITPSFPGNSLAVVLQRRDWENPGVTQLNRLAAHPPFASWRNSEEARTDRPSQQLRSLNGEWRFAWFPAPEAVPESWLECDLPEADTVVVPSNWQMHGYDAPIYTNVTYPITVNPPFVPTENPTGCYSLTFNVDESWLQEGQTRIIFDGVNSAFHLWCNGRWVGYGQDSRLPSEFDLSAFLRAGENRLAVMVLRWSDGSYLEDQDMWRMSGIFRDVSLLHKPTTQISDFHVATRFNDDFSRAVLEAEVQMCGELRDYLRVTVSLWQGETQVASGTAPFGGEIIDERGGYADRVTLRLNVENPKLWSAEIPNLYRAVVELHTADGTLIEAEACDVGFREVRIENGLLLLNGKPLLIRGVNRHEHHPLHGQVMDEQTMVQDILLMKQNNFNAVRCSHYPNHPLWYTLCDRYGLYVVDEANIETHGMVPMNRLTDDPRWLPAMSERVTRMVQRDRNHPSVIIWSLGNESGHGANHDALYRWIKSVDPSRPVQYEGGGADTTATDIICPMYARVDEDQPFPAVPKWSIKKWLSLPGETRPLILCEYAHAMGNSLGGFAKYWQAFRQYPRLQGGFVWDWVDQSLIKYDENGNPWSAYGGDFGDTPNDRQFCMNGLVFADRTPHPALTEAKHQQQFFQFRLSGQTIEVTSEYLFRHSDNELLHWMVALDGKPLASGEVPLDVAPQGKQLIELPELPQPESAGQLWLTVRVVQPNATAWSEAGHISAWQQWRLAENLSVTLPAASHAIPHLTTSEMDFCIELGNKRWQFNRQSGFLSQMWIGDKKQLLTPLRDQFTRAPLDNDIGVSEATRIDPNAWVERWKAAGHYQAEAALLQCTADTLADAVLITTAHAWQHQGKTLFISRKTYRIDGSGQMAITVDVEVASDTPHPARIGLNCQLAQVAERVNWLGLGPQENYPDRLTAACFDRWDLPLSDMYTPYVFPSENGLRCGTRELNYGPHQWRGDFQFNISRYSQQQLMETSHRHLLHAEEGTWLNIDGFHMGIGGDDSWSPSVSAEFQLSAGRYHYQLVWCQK

Row | Structure (SMILES) | IC50 [2] | IC50 (Caspase-3 [3]) | IC50 [4] | IC50 [5] | IC50 [6] | IC50 [7] | IC50 [8] | IC50 (Caspase-3 [9]) | EC50 [12] | EC50 [14] | EC50 [15] | EC50 [16] | other results
1 | O=C(NNc1ncc(C(F)(F)F)cc1Cl)c1c(Cl)cccc1Cl |  |  |  |  |  |  |  |  |  |  |  |  | EC50 (Beta-galactosidase): > 40 µM (inactive); IC50 [1]: > 40 µM (not active)
2 | Fc1ccccc1COc1ccc(C(=S)N2CCCC2)cc1 | 3.21 µM (active) | 0.742 µM (active) | 17.1 µM (active) | 1.55 µM (active) | 10.9 µM (active) | 1.64 µM (active) | 1.17 µM (active) | 9.99 µM (active) |  |  |  |  | AC50 (HeLa): 162 µM (active)
3 | Cc1ccc2nc(-c3cccnc3SCC(=O)N3c4ccccc4CC3C)[nH]c2c1 (stereo not drawn) | 1.56 µM (active) | 5.3 µM (active) | > 100 µM (inactive) | 6.28 µM (active) | 2.9 µM (active) | 5.66 µM (active) | 5.76 µM (active) | 4.22 µM (active) |  |  |  |  | EC50 [10]: 11.2 µM (active)
4 | O=C(Nc1nnc(C2COc3ccccc3O2)o1)c1ccc(F)cc1 (stereo not drawn) |  |  |  |  |  |  |  |  | 0.968 µM (active) | > 150 µM (inactive) | > 180 µM (inactive) | 25.4 µM (inconclusive) | EC50 (Streptococcus): 11.4 µM (active); CC50 [11]: 11.4 µM (active); CC50 [13]: 19.9 µM (active); IC50 (cells): 1.49 µM (active); CC50 [17]: 15.7 µM (active); EC50 [18]: 0.98 µM (active)
5 | Cc1ccccc1C(=O)O/N=C/c1c(N2CCOCC2)n(C)c2ccccc12 |  |  |  |  |  |  |  |  | 0.212 µM (active) | 23.7 µM (active) | > 180 µM (inactive) | > 160 µM (inactive) | EC50 [19]: 11.8 µM (active); EC50 [20]: 4.88 µM (active); IC50 [21]: 21.6 µM (active); EC50 [22]: 0.455 µM (active)
